Reference: US3931204A, “Thieno[3,4-d]pyrimidines” (U.C.B. Societe Anonyme, priority 1974, dated 1976)

Key:
[1] = test system: dog anaesthetized with nembutal; test: Blood flow in thoracic aorta (cardiac output), vertebral artery (cerebral flow) and femoral artery (musculocutaneous peripheral flow), electromagnetic flow measurement, anaesthetized dog; format: in vivo; details: 2 mg/kg animal body weight, intravenous; for increase in the femoral flow: femoral artery; for increase in the cardiac flow: thoracic aorta; for increase in the cerebral flow (in words): vertebral artery; for duration of the increase of the cerebral circulation: increase by 30 to 40%
Method: The measurements were carried out by means of periarterial probes according to the principle of electromagnetic flow measurement. The general experimental conditions have already been described in the Literature (D. WELLENS and E. WAUTERS, Arch.Int.Pharmacod.171/1,(1968), 246). The medicament was administered by intravenous route.
The administration of compounds according to the invention, namely the 2-chloro-4-isopropylamino-thieno[3,4-d]pyrimidine monohydrochloride (compound A), the 2-chloro-4-morpholino-thieno[3,4-d]pyrimidine monohydrochloride (compound B), the 2-chloro-4-(3-methyl-morpholino)-thieno[3,4-d]pyrimidine monohydrochloride (compound C), the 2-n-propylamino-4-isopropylamino-thieno[3,4-d]-pyrimidine monomaleate (compound D) and the 2-n-propyl-4-isopropylamino-thieno[3,4-d]pyrimidine mono-maleate (compound E) brought about the following effects under these conditions: […]

[2] = Intravenous lethal dose (LD50) in rat; details: in vivo, solvent: A propylene glycol + water, B polyethylene glycol + ethanol, C, F, G water, D glycofurol
Method: (§1) The intravenously administered lethal doses (LD50) were determined in rat and mouse. For compounds A to G mentioned above, the recorded results, expressed in mg of compound per kg of animal body weight, are given in the following Table: […]

[3] = Intravenous lethal dose (LD50) in mouse; details: in vivo, solvent: C water, D glycofurol, E polyethylene glycol
Method: as §1

[4] = test system: rabbit, in morphinic respiratory depression; test: Respiratory analeptic action in morphinic respiratory depression; format: in vivo; details: 2,5 mg of free base/kg animal body weight

| SMILES | increase in the femoral flow [1] | increase in the cardiac flow [1] | increase in the cerebral flow (in words) [1] | LD50 [2] [mg/kg] | duration of the increase of the cerebral circulation [1] | LD50 [3] [mg/kg] | respiratory analeptic effect relative to diethylnicotinamide [4] |
| --- | --- | --- | --- | --- | --- | --- | --- |
| CC(C)Nc1nc(Cl)nc2cscc12.Cl [A, 2-chloro-4-isopropylamino-thieno[3,4-d]pyrimidine monohydrochloride] | appreciable increase | appreciable increase | appreciable increase | 65 |  |  |  |
| Cl.Clc1nc(N2CCOCC2)c2cscc2n1 [B, 2-chloro-4-morpholino-thieno[3,4-d]pyrimidine monohydrochloride] | appreciable increase | appreciable increase | appreciable increase | 130 |  |  |  |
| CC1COCCN1c1nc(Cl)nc2cscc12.Cl (stereo not shown) [C, 2-chloro-4-(3-methyl-morpholino)-thieno[3,4-d]pyrimidine monohydrochloride] | marked increase | appreciable increase | marked increase | 109 | at least 40 minutes | 117 |  |
| CCCNc1nc(NC(C)C)c2cscc2n1.O=C(O)/C=C\C(=O)O [D, 2-n-propylamino-4-isopropylamino-thieno[3,4-d]-pyrimidine monomaleate] | marked increase | appreciable increase | marked increase | 25.5 | at least 40 minutes | 21 |  |
| CCCc1nc(NC(C)C)c2cscc2n1.O=C(O)/C=C\C(=O)O [E, 2-n-propyl-4-isopropylamino-thieno[3,4-d]pyrimidine mono-maleate] | appreciable increase | appreciable increase | appreciable increase |  |  | 23 |  |
| CCOc1nc(NC(C)C)c2cscc2n1.Cl [F, 2-ethoxy-4-isopropylamino-thieno[3,4-d]pyrimidine monohydrochloride] |  |  |  | 49 |  |  | equivalent to that produced by a six times higher dose of diethylnicotinamide |
| CCCNc1nc(OCC)nc2cscc12.Cl [G, 2-ethoxy-4-n-propylamino-thieno[3,4-d]pyrimidine monohydrochloride] |  |  |  | 42 |  |  | equivalent to that produced by a six times higher dose of diethylnicotinamide |
